The source made the active and inactive calls. The calls are words filed in the database; no cut-off is given here.
Legend:
[1] = molecular target: T1, Alpha glucosidase (Homo sapiens, UniProt O43451+P10253+P14410+Q2M2H8); assay: Inhibition of alpha glucosidase (unknown origin) at 50 uM relative to control; assay type: protein assay
[2] = molecular target: T1, Alpha glucosidase; assay: Inhibition of alpha glucosidase (unknown origin); assay type: protein assay
[3] = molecular target: T1, Alpha glucosidase; assay: Competitive inhibition of alpha glucosidase (unknown origin) using pNPG as substrate by Lineweaver-Burk plot analysis; assay type: protein assay
[4] = Cytotoxicity against human HEK293 cells assessed as inhibition of cell growth at 100 uM by CCK-8 assay relative to control; assay type: toxicity, cell-based; details: read-out: Activity
[5] = Cytotoxicity against mouse RAW264.7 cells assessed as inhibition of cell growth at 100 uM by CCK-8 assay relative to control; assay type: toxicity, cell-based; details: read-out: Activity
[6] = molecular target: T1, Alpha glucosidase; assay: Non-competitive inhibition of alpha glucosidase (unknown origin) assessed as inhibition constant using pNPG as substrate by Dixon plot analysis; assay type: protein assay
[7] = Cytotoxicity against human HepG2 cells assessed as inhibition of cell growth at 100 uM by CCK-8 assay relative to control; assay type: toxicity, cell-based; details: read-out: Activity
[8] = molecular target: T1, Alpha glucosidase; assay: Potency index, […] for inhibition of alpha glucosidase (unknown origin); assay type: protein assay
[9] = molecular target: T1, Alpha glucosidase; assay: Inhibition of alpha glucosidase (unknown origin) using p-nitrophenyl glucopyranoside as substrate pre incubated for 10 mins followed by substrate addition and measured after 30 mins by plate reader analysis; assay type: protein assay

inhibition [1] [%]	IC50 [2] [µM]	SMILES	further results
85.7	8.934	O=C(Sc1nccs1)c1ccc(-c2ccc([N+](=O)[O-])cc2)o1	–
87.6	19.763	O=C(Nc1nccs1)c1ccc(-c2ccccc2F)o1	–
89.9	5.283	O=C(Sc1nccs1)c1ccc(-c2ccc(Br)cc2)o1	–
78.6	14.945	COc1ccc(-c2ccc(C(=O)Sc3nccs3)o2)cc1	–
11.5	–	C[C@H]1O[C@H](O[C@H]2[C@H](O)[C@@H](O)[C@@H](O[C@H]3[C@H](O)[C@@H](O)C(O)O[C@@H]3CO)O[C@@H]2CO)[C@H](O)[C@@H](O)[C@@H]1N[C@H]1C=C(CO)[C@@H](O)[C@H](O)[C@H]1O (stereo not given in full)	inhibition [3]: Active
87.7	26.943	O=C(Nc1nccs1)c1ccc(-c2ccccc2[N+](=O)[O-])o1	–
94.4	2.611	O=C(Sc1nccs1)c1ccc(-c2cccc(Cl)c2)o1	–
67.4	20.717	O=C(Nc1nccs1)c1ccc(-c2ccc(F)cc2)o1	–
100	2.223	O=C(Sc1nccs1)c1ccc(-c2ccccc2)o1	–
88.4	5.871	O=C(Nc1nccs1)c1ccc(-c2cccc(Cl)c2)o1	–
64.6	26.495	Cc1ccc(-c2ccc(C(=O)Nc3nccs3)o2)cc1	–
87	5.392	O=C(Sc1nccs1)c1ccc(-c2cccc(F)c2)o1	–
91.5	4.987	O=C(Nc1nccs1)c1ccc(-c2ccc([N+](=O)[O-])cc2)o1	–
–	0.082	Cc1nnc(SC(=O)c2ccc(-c3cccc(F)c3)o2)s1	–
89.3	4.12	O=C(Nc1nccs1)c1ccc(-c2cccc([N+](=O)[O-])c2)o1	inhibition at 100 µM [4]: 28.4%; inhibition at 100 µM [5]: 16.4%; Ki [6]: 367.24 µM; inhibition at 100 µM [7]: 13.7%; inhibition [3]: Active
69.1	14.769	O=C(Nc1nccs1)c1ccc(-c2ccc(Cl)cc2)o1	–
98.5	0.645	O=C(Sc1nccs1)c1ccc(-c2ccccc2[N+](=O)[O-])o1	inhibition at 100 µM [4]: 53.4%; Ratio IC50 [8]: 701; inhibition at 100 µM [5]: 38.1%; Ki [6]: 2.04 µM; inhibition at 100 µM [7]: 47.2%
80.4	11.43	Cc1ccc(-c2ccc(C(=O)Sc3nccs3)o2)cc1	–

inhibition [1] [%]	IC50 [2] [µM]	SMILES	further results
88.1	6.227	O=C(Nc1nccs1)c1ccc(-c2cccc(F)c2)o1	–
86.1	6.935	O=C(Sc1nccs1)c1ccc(-c2ccc(F)cc2F)o1	–
–	1.2	N#C/N=c1\sccn1C(=O)c1ccc(-c2cccc(Cl)c2)o1	–
20.2	–	O=C(Sc1nccs1)c1ccc(-c2cccc([N+](=O)[O-])c2)o1	–
27.3	94.033	O=C(Nc1nccs1)c1ccc(-c2ccccc2)o1	–
59.3	18.33	O=C(Nc1nccs1)c1ccc(-c2ccccc2Cl)o1	–
84.2	4.562	O=C(Sc1nccs1)c1ccc(-c2ccc(Cl)cc2)o1	–
83.6	5.97	O=C(Sc1nccs1)c1ccc(-c2ccccc2F)o1	–
43.4	–	O=C(Sc1nccs1)c1ccc(-c2ccc(F)cc2)o1	–
59	30.94	COc1ccc(-c2ccc(C(=O)Nc3nccs3)o2)cc1	–
34.1	77.99	O=C(Nc1nccs1)c1ccc(-c2ccc(F)cc2F)o1	–
74	24.125	O=C(Nc1nccs1)c1ccc(-c2ccc(Br)cc2)o1	–
88.2	1.935	O=C(Sc1nccs1)c1ccc(-c2ccccc2Cl)o1	–
21.6	148.2	O=C(Nc1nccs1)c1ccc(-c2c(F)cccc2F)o1	–
–	–	CC(C)(C)c1cc(/C=N/Nc2nc(-c3ccc(Cl)cc3)cs2)cc(C(C)(C)C)c1O	IC50 [9]: 18.23 µM
–	–	O=C(Nn1c(-c2cc3ccccc3oc2=O)cs/c1=N\c1ccc(Cl)c(Cl)c1)c1ccccc1O	IC50 [9]: 0.12 µM
83.6	8.436	O=C(Sc1nccs1)c1ccc(-c2c(F)cccc2F)o1	–
–	0.186	O=C(Sc1nncs1)c1ccc(-c2ccc(Cl)cc2)o1	–
